{"source": "patent US12364733B1", "about": "“Method for treating septic shock” (Inotrem, priority 2018, dated 2025)", "format_in_all_cases": "in vivo, human", "key": {"[1]": {"system": "anti-nangibotide antibodies", "assay": "Immunogenicity: anti-nangibotide antibodies in serum by indirect ELISA", "conditions": "baseline, day 8 and day 28", "protocol": "Anti-nangibotide antibodies in serum were evaluated at baseline, day 8 and day 28, by an indirect ELISA method validated according to methods described by Shankar et al. (J Pharm Biomed Anal. 2008 Dec. 15; 48(5):1267-81) and EMA guidance on immunogenicity assessment of biotechnology-derived therapeutic proteins (EMEA/CHMP/BMWP/14327/2006 issued on April 2008). Screening samples determined as positive were further assessed using the confirmatory assay where the cut point was established to have 0.1% of false positive samples (Shankar et al., J Pharm Biomed Anal. 2008 Dec. 15; 48(5):1267-81). […] The sensitivity of the assay was established to be 0.3125 pg/mL."}, "[2]": {"assay": "Blood nangibotide concentrations by LC-MS/MS (pharmacokinetics, phase IIa trial)", "protocol": "Blood nangibotide concentrations were determined by a validated LC-MS/MS method in accordance with European Medicines Agency (EMA) guidelines on bioanalytical method validation EMEA/CHMP/EWP/192217/2009, version EMA/275542/2014. The peptide was stabilized in the blood samples by treatment with a 10% trichloroacetic acid solution ([…], 4° C.) and centrifugation (3500 g, 10 min, 4° C.) to collect and freeze the supernatant before analysis. The lower limit of quantification (LLOQ) and upper limit of quantification (ULOQ) were 5 ng/mL and 1000 ng/mL respectively. Standard curve was linear over the range 5 ng/mL to 1000 ng/mL with a correlation coefficient greater than 0.995. Within-run and between-run precision and accuracy within +/−20% LLOQ and +/−15% (other levels up to ULOQ) were achieved during a 3-run validation for quality controls (QCs) for nangibotide."}, "septic shock patients": {"system": "septic shock patients", "assay": "Phase IIa clinical trial with nangibotide in septic shock patients: mortality", "conditions": "for Sepsis-related mortality at 5 days, % / Sepsis-related mortality at 5 days, number of death / Sepsis-related mortality at 28 days, % / Sepsis-related mortality at 28 days, number of death / Sepsis-related mortality at 90 days, % / Sepsis-related mortality at 90 days, number of death: subgroup sTREM-1 at baseline above the median (433pg/mL); for All-cause mortality at 90 days, number of death / All-cause mortality at 5 days, % / All-cause mortality at 5 days, number of death / All-cause mortality at 28 days, % / All-cause mortality at 28 days, number of death / All-cause mortality at 90 days, %: whole population", "protocol": "This was a randomized, double-blind, two-stage, placebo-controlled study. As described in FIG. 7, the study was composed of 2 stages with a similar treatment regimen, in which 0.3, 1.0 or 3.0 mg/kg/h of nangibotide (corresponding to peptide LR12, having an amino acid sequence as set forth in SEQ ID NO: 9, also known as motrem) was tested versus placebo. All patients with a diagnosis of septic shock were considered for study participation. All potential study patients underwent standard care management procedures. Patients with evidence of septic shock according to the Sepsis-3 definition (Singer et al, JAMA 2016) were considered for inclusion (i.e., patients suffering from sepsis and having (i) persisting hypotension requiring vasopressors to maintain their mean arterial pressure ≥65 mm Hg and (ii) a serum lactate level >2 mmol/L (18 mg/dL) despite adequate volume resuscitation).\nAfter screening for eligibility, patients were randomized to one of the treatment arms. Then, they received either a 5 mg/kg loading dose of nangibotide over 15 minutes followed by a continuous intravenous (i.v.) infusion of nangibotide or a matching placebo on top of standard of care. Treatment with study drug was initiated as early as possible, but no later than 24 hours after the onset of septic shock, defined by the start of vasopressor therapy. Patients were treated until 12 (±2) hours after the resolution of their septic shock (defined as vasopressor withdrawal) with a maximum treatment duration of 5 days (120 hours).\nAdverse events (AEs) were coded using the MedDRA dictionary version 18.1. Treatment-emergent adverse events (TEAEs) were summarized and listed. Analysis was performed in 49 septic shock patients. The demographic and baseline characteristics were summarized in a descriptive fashion within each population: categorical variables were summarized by contingency tables (frequencies and percentages). sTREM-1 levels at day 1 were also described (mean, standard deviation, standard error, median, quartiles and range, minimum and maximum values). Mortality rates were reported by frequency and percentage. For continuous endpoints, i.e., the sequential organ failure assessment (SOFA), missing data were imputed using LOCF (Last Observation Carry-Forward). For time-to-event analyses, i.e., duration of invasive mechanical ventilation (IMV), duration of continuous renal replacement therapy (CRRT), survival, censored data techniques were utilized. In addition, a sensitivity analysis of time to event data (except survival) was performed using censoring at maximum limit for the corresponding observation period (i.e., either day 28 or day 90). […] The following comparisons were made: each nangibotide dose arm to placebo, all nangibotide doses combined versus placebo, and dose-response using an ordinal trend test. Exploratory composite endpoint: incidence (number and proportion) of patients alive at day 28 and free of vasopressor, free of IMV and free of CRRT were summarized by treatment and compared between treatments with a Fisher's exact test. For pharmacodynamic markers, log transformed data were represented as percentage change from baseline at day 5 or End of Infusion (EOI) if end of infusion was stopped before day 5. […] “All nangibotide” refers to analyses obtained by pooling data from 0.3, 1 and 3 mg/kg/h nangibotide-treated groups."}, "[3]": {"conditions": "0.3 mg/kg/h (N = 6), 1st dose column"}, "[4]": {"conditions": "0.3 mg/kg/h (N = 6), 2nd dose column"}, "[5]": {"conditions": "0.3 mg/kg/h (N = 8), 3rd dose column"}, "[6]": {"conditions": "0.3 mg/kg/h (N = 12), 3rd dose column"}, "[7]": {"conditions": "0.3 mg/kg/h (N = 13), 1st dose column"}, "[8]": {"conditions": "1.0 mg/kg/h (N = 12), 2nd dose column"}, "[9]": {"conditions": "pooled (N = 37), listed as nangibotide"}}, "note": "Entries after “also recorded” stand apart in the source; their conditions may differ.", "data": [{"substance": "nangibotide (LQEEDAGEYGCM; TLT-1 peptide)", "values": [{"measurement": "anti-nangibotide antibodies in serum", "setting": "[1]", "value": "No anti-nangibotide antibodies were found"}, {"measurement": "nangibotide blood concentration versus dose", "setting": "[2]; 0.3, 1.0, 3.0 mg/kg/h", "value": "proportional with the dose"}, {"measurement": "clearance after the end of infusion", "setting": "[2]; human, in vivo", "value": "quickly cleared"}, {"measurement": "pharmacokinetics / blood concentrations compared with healthy volunteers", "setting": "[2]; in vivo", "value": "within the same range previously observed in healthy volunteers"}, {"measurement": "pharmacokinetic behavior during intravenous infusion", "setting": "[2]; in vivo, iv", "value": "linear behavior"}, {"measurement": "mortality vs. placebo", "setting": "septic shock patients; nangibotide group, whole study", "value": "consistent trend in the proportion of death patients in favor of nangibotide-treated groups; also recorded: non-significant lower mortality"}, {"measurement": "Sepsis-related mortality at 5 days, %", "setting": "septic shock patients; [3]", "value": 17, "unit": "%"}, {"measurement": "Sepsis-related mortality at 5 days, number of death", "setting": "septic shock patients; [3]", "value": 1}, {"measurement": "Sepsis-related mortality at 28 days, %", "setting": "septic shock patients; [3]", "value": 17, "unit": "%"}, {"measurement": "Sepsis-related mortality at 28 days, number of death", "setting": "septic shock patients; [3]", "value": 1}, {"measurement": "Sepsis-related mortality at 90 days, %", "setting": "septic shock patients; [3]", "value": 17, "unit": "%"}, {"measurement": "Sepsis-related mortality at 90 days, number of death", "setting": "septic shock patients; [3]", "value": 1}, {"measurement": "Sepsis-related mortality at 5 days, %", "setting": "septic shock patients; [4]", "value": 17, "unit": "%"}, {"measurement": "Sepsis-related mortality at 5 days, number of death", "setting": "septic shock patients; [4]", "value": 1}, {"measurement": "Sepsis-related mortality at 28 days, %", "setting": "septic shock patients; [4]", "value": 17, "unit": "%"}, {"measurement": "Sepsis-related mortality at 28 days, number of death", "setting": "septic shock patients; [4]", "value": 1}, {"measurement": "Sepsis-related mortality at 90 days, %", "setting": "septic shock patients; [4]", "value": 17, "unit": "%"}, {"measurement": "Sepsis-related mortality at 90 days, number of death", "setting": "septic shock patients; [4]", "value": 1}, {"measurement": "Sepsis-related mortality at 5 days, number of death", "setting": "septic shock patients; [5]", "value": 2}, {"measurement": "Sepsis-related mortality at 28 days, number of death", "setting": "septic shock patients; [5]", "value": 2}, {"measurement": "Sepsis-related mortality at 90 days, number of death", "setting": "septic shock patients; [5]", "value": 2}, {"measurement": "Sepsis-related mortality at 5 days, %", "setting": "septic shock patients; pooled (N = 20)", "value": 20, "unit": "%"}, {"measurement": "Sepsis-related mortality at 5 days, number of death", "setting": "septic shock patients; pooled (N = 20)", "value": 4}, {"measurement": "Sepsis-related mortality at 28 days, %", "setting": "septic shock patients; pooled (N = 20)", "value": 20, "unit": "%"}, {"measurement": "Sepsis-related mortality at 28 days, number of death", "setting": "septic shock patients; pooled (N = 20)", "value": 4}, {"measurement": "Sepsis-related mortality at 90 days, %", "setting": "septic shock patients; pooled (N = 20)", "value": 20, "unit": "%"}, {"measurement": "Sepsis-related mortality at 90 days, number of death", "setting": "septic shock patients; pooled (N = 20)", "value": 4}, {"measurement": "All-cause mortality at 90 days, number of death", "setting": "septic shock patients; 0.3 mg/kg/h (N = 12), 2nd dose column", "value": 2}, {"measurement": "All-cause mortality at 5 days, %", "setting": "septic shock patients; [6]", "value": 17, "unit": "%"}, {"measurement": "All-cause mortality at 5 days, number of death", "setting": "septic shock patients; [6]", "value": 2}, {"measurement": "All-cause mortality at 28 days, %", "setting": "septic shock patients; [6]", "value": 25, "unit": "%"}, {"measurement": "All-cause mortality at 28 days, number of death", "setting": "septic shock patients; [6]", "value": 3}, {"measurement": "All-cause mortality at 90 days, %", "setting": "septic shock patients; [6]", "value": 33, "unit": "%"}, {"measurement": "All-cause mortality at 90 days, number of death", "setting": "septic shock patients; [6]", "value": 4}, {"measurement": "All-cause mortality at 5 days, %", "setting": "septic shock patients; [7]", "value": 7.7, "unit": "%"}, {"measurement": "All-cause mortality at 5 days, number of death", "setting": "septic shock patients; [7]", "value": 1}, {"measurement": "All-cause mortality at 28 days, %", "setting": "septic shock patients; [7]", "value": 15, "unit": "%"}, {"measurement": "All-cause mortality at 28 days, number of death", "setting": "septic shock patients; [7]", "value": 2}, {"measurement": "All-cause mortality at 90 days, %", "setting": "septic shock patients; [7]", "value": 32, "unit": "%"}, {"measurement": "All-cause mortality at 90 days, number of death", "setting": "septic shock patients; [7]", "value": 4}, {"measurement": "All-cause mortality at 5 days, %", "setting": "septic shock patients; [8]", "value": 8.3, "unit": "%"}, {"measurement": "All-cause mortality at 5 days, number of death", "setting": "septic shock patients; [8]", "value": 1}, {"measurement": "All-cause mortality at 28 days, %", "setting": "septic shock patients; [8]", "value": 8.3, "unit": "%"}, {"measurement": "All-cause mortality at 28 days, number of death", "setting": "septic shock patients; [8]", "value": 1}, {"measurement": "All-cause mortality at 90 days, %", "setting": "septic shock patients; [8]", "value": 17, "unit": "%"}, {"measurement": "All-cause mortality at 5 days, %", "setting": "septic shock patients; pooled (N = 37)", "value": 11, "unit": "%"}, {"measurement": "All-cause mortality at 5 days, number of death", "setting": "septic shock patients; pooled (N = 37)", "value": 4}, {"measurement": "All-cause mortality at 28 days, %", "setting": "septic shock patients; pooled (N = 37)", "value": 16, "unit": "%"}, {"measurement": "All-cause mortality at 28 days, number of death", "setting": "septic shock patients; pooled (N = 37)", "value": 6}, {"measurement": "All-cause mortality at 90 days, %", "setting": "septic shock patients; pooled (N = 37)", "value": 27, "unit": "%"}, {"measurement": "All-cause mortality at 90 days, number of death", "setting": "septic shock patients; pooled (N = 37)", "value": 10}, {"measurement": "All-cause mortality at 28 days, %", "setting": "septic shock patients; [9]", "value": 14, "unit": "%"}, {"measurement": "All-cause mortality at 28 days, number of death", "setting": "septic shock patients; [9]", "value": 5}]}]}
